Results reported in patent US20060128688A1, “Asenapine for the treatment of schizophrenia in a patient with overweight or predisposition for overweight” (priority 2003, published 2006).
Where “and” joins values, the source holds several entries; their conditions need not be identical. Equal values may be shown once. Read-outs that look alike come from different tables or passages of the source.

Legend:
[1] = system: subjects with acute exacerbation of their schizophrenic illness; test: Randomized double blind, fixed-dose 6-week trial: efficacy on disease symptoms (PANSS); format: in vivo, human; conditions: asenapine 5 mg twice a day sublingual, risperidone 3 mg twice daily, 6 weeks, compared with placebo
[2] = among atypical antipsychotics, literature review; cited from earlier work
[3] = All-Subjects-Treated Group, baseline to day 42 or final day of treatment

Row | Compound | efficacy in reducing the symptoms of schizophrenia [1] | number of subjects with greater than 10% weight gain from baseline (All-Subjects-Treated Group) | number of subjects (n) with clinically significant decrease of ≧7% from baseline in body weight [3] | number of subjects (n) with clinically significant increase of ≧7% from baseline in body weight [3] | weight gain associated with the drug [2] | also measured
1 | CN1C[C@@H]2c3ccccc3Oc3ccc(Cl)cc3[C@H]2C1 (relative stereo) [asenapine, trans-5-chloro-2-methyl-2,3,3a,12b-tetrahydro-1H-dibenz[2,3:6,7]oxepino[4,5-c]pyrrole] | significantly more effective than placebo | 1 | 0 | 2 | – | subjects with clinically significant decrease of ≧7% from baseline in body weight, % [3]: 0.0%; subjects with clinically significant weight gain (increase from baseline of ≧7%), % [3]: 4% and 4.3%; subjects with clinically significant weight gain (increase from baseline of ≧7%), % (All-Subjects-Treated Group, baseline to day 42 or final day of treatment, listed as Asenapine): 4.3%; increase in body weight from baseline (at end point, group result): 0.5%; other side effects (overall conclusion of the 6-week trial): minimal other side effects
2 | Cc1cc2c(s1)Nc1ccccc1N=C2N1CCN(C)CC1 [olanzapine] | – | – | – | – | largest weight gains | –
3 | OCCOCCN1CCN(C2=Nc3ccccc3Sc3ccccc32)CC1 [quetiapine] | – | – | – | – | smallest | –
4 | Cc1nc2n(c(=O)c1CCN1CCC(c3noc4cc(F)ccc34)CC1)CCCC2 [risperidone, reference compound] | significantly more effective than placebo | 2 | 1 | 8 | modest weight changes that are not dose related | –
5 | O=C1Cc2cc(CCN3CCN(c4nsc5ccccc45)CC3)c(Cl)cc2N1 [ziprasidone] | – | – | – | – | smallest | –
